Patent US9598434B2, “Benzazepine compound” (Astellas Pharma Inc., priority 2010, dated 2017)
Where two headings read alike, the source gives them in different places.

Tests used:
[1] = test system: Hartley female guinea pigs; assay: Measurement of external urethral sphincter electromyography; type: in vivo, guinea pig; conditions: Cavia porcellus, read-out: external urethral sphincter electromyography activity
From the text: The activating action of the compound of the formula (I) on the urethral sphincter electromyography was confirmed with the method shown below.
Hartley female guinea pigs with a body weight of 250 to 350 g were anesthetized with urethane (Sigma). The guinea pigs were fixed in a supine position and catheters (PE-50; Clay Adams) for administration of test compounds were inserted into the jugular vein. Further, a catheters (PE-160; Clay Adams), for an infusion of physiological saline into bladder and measurement of the intravesical pressure, were inserted through an incision into the dome of the bladder. Further, in order to measure the external urethral sphincter electromyography, two electrodes were inserted into both the left and right sides of the urethral opening to the urethral sphincter. The electrodes for measuring base voltages were placed under the skin of the hind part. The bladder catheter was branched over a three-way stopcock, and one was connected with a 50 mL syringe (Terumo) fixed to an infusion pump (Terumo). The other was connected to a pressure transducer (DX-100; Nihon Kohden Corporation) to transfer the signal of the transducer through an amplifier (AP-630G; Nihon Kohden Corporation) and a data acquisition system (PowerLab; AD Instruments) to a computer and record on a hard disk. The electrodes for electromyography measurement were connected to a control unit (JB-101J; Nihon Kohden Corporation) to transfer the signal through an amplifier (AP-651J; Nihon Kohden Corporation) and a data acquisition system (PowerLab; AD Instruments) to a computer and record on a hard disk. Further, the data were analyzed on the computer using a software (Chart; AD Instruments). […] The electromyography activity was analyzed by taking the lowest potential amplitude as a standard during the stabilization period and using the firing frequency over the standard amplitude as an indicator. At internals between the respective urinations (urine filling phase), the activity of the urethral sphincter electromyography was analyzed and its average value was calculated. After the stabilization period, the solvent and the test compound were administered at an increased dose at an interval of 40 minutes through the catheter placed into the jugular vein. The urethral sphincter electromyography activity after the administration of the solvent was taken as 100% and the urethral sphincter electromyography activity after the administration of the test compound was denoted as a percentage (%) of the electromyography activity after the administration of the solvent.

human 5-HT2C receptor = molecular target: T1, human 5-HT2C receptor (Homo sapiens, UniProt P28335); assay: Evaluation of 5-HT2C receptor agonist activity (intracellular calcium increase, FLIPR, CHO cells stably expressing the receptor); type: cell-based; conditions: for Emax: CHO, read-out: 5-HT2C agonist activity Emax
T1 construct: expressed in transfected cells
T1 sequence (P28335 33-458): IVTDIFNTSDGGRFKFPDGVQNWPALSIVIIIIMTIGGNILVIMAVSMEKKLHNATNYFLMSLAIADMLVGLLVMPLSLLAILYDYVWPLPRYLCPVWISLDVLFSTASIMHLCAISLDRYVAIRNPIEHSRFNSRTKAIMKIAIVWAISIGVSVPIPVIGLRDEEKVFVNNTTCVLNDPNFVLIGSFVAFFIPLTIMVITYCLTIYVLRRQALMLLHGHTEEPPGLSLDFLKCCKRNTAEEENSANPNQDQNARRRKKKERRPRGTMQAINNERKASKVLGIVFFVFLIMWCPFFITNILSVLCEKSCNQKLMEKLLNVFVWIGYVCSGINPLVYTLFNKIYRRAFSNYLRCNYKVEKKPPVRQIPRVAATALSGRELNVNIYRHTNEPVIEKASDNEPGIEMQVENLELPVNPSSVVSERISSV
Description: The agonist activity of the compound of the formula (I) on the 5-HT2C receptor was confirmed by the method shown below.
The human 5-HT2C receptor agonist activity was evaluated by measuring the increase of the ligand-dependent intracellular calcium concentration. CHO cells which stably expressing a human 5-HT2C receptor were used. The receptor-expressing cells were prepared by transfecting the genes of the human 5-HT2C receptor (Accession numbers: AF498983 (5-HT2C)) into CHO cells (dihydrofolic acid-deficient strain, DS Pharma Biomedical Co., Ltd.)) using a pEF-BOS vector (Nucleic Acids Research, vol. 18, No. 17). After transcription, the 5-HT2C is known to be subjected to RNA editing to cause differences in three kinds of amino acids, resulting in fourteen receptor isoforms. Among them, cells stably expressing an INI type of 5-HT2C receptor which had not been subjected to editing were used. Cells used for evaluation were cultured in a 10% fetal bovine serum (FBS)-containing medium (trade name: α-MEM, Invitrogen) at 37° C. and 5% carbon dioxide. On the day before the evaluation, the cells were suspended in a serum-free medium (trade name: CD-CHO, Invitrogen) containing 8 mM L-glutamine (trade name: L-glutamine 200 mM, Invitrogen, added to the medium at a final concentration of 8 mM) and dispensed into a 96-well poly-D-lysine-coated plate (trade name: Biocoat PDL96W Black/Clear, Japan Becton, Dickinson and Company)) at 4×10^4 cells/well and cultured at 37° C. and 5% carbon dioxide overnight. A solution including a washing solution (mixture of Hank's Balanced Salt Solution (HBSS)-sodium hydroxide (NaOH), 20 mM 2-[4-(2-hydroxyethyl)-1-piperazinyl]ethanesulfonic acid (HEPES)-sodium hydroxide (NaOH), 2.5 mM probenecid, and 0.1% bovine serum albumin (BSA)), and a 4 μM fluorescent reagent (trade name: Fluo4-AM, Dojindo Co., Ltd.) was used as a loading buffer and the medium of the 96-well plate which had been cultured overnight was replaced with a loading buffer. After leaving to stand (with light-shielding) at room temperature for 3 hours, the cells were washed with a plate washer (trade name: ELx405, BioTek Instruments, Inc.) in which a washing solution had been set up. The plates of the washed cells were set up in a system for measuring a calcium (Ca) concentration in a cell (trade name: FLIPR, Molecular Devices, Inc.). In this device, a test compound that had been dissolved in dimethyl sulfoxide and diluted in the washing solution at a predetermined concentration was added and set up to measure a change in the Ca concentrations in a cell. The difference between a maximum value and a minimum value in the change of the intracellular Ca concentration was determined and kept as measurement data.
Taking the maximum reaction of the 5-HT (agonist action with addition of 5-HT 10 μM) as 100% and the reaction of a solvent alone as 0%, the efficacy (Emax (%)) and potency (EC50 (nM)) of the present invention compound to the maximum reaction of the 5-HT were calculated with a logistic regression method.

[2] = intravenous administration at 3 mg/kg, urethane-anesthetized guinea pigs, activity after solvent taken as 100%
[3] = CHO cells stably expressing INI type human 5-HT2C receptor, intracellular Ca increase, logistic regression, read-out: 5-HT2C agonist activity EC50

Structure (SMILES)	melting point	response vs control in vivo at 3 mg/kg [1, 2]	EC50 (human 5-HT2C receptor; [3])	Emax (human 5-HT2C receptor)	response vs control in vivo at 3 mg/kg ([1]; iv)	EC50 (human 5-HT2C receptor)
COCc1cccc(CN2CCOc3cc4c(c(C5CC5)c32)CCNCC4)c1.O=C(O)/C=C/C(=O)O [Example 288]	190 to 193 °C	≥ 200%	0.64 nM	90%		
COCCN1CCOc2cc3c(c(C4CC4)c21)CCNCC3 [Example 88]		≥ 200%	1.1 nM	105%		
CO[C@H](C)CN1CCOc2cc3c(c(C4CC4)c21)CCNCC3.O=C(O)/C=C/C(=O)O [Example 243]	133 to 136 °C	≥ 200%	0.53 nM	96%		
O=C(O)/C=C/C(=O)O.c1cc2c(cc1CN1CCOc3cc4c(c(C5CC5)c31)CCNCC4)OCCO2 [Example 291]	165 to 168 °C	≥ 200%	1.2 nM	93%		
CC(C)CN1CCCc2cc3c(cc21)CCNCC3 [Example 38]		≥ 200%	2.1 nM	94%		
CCO[C@H](C)CN1CCOc2cc3c(c(C4CC4)c21)CCNCC3.O=C(O)/C=C/C(=O)O [Example 315]	157 to 160 °C	≥ 200%	2.8 nM	108%		
O=C(O)/C=C/C(=O)O.c1c2c(c(C3CC3)c3c1OCCN3CC1CCCOC1)CCNCC2 (stereo not shown) [Example 263]	186 to 189 °C	≥ 200%	2.8 nM	96%		
COCCN1c2c(cc3c(c2C2CC2)CCNCC3)OC[C@@H]1C [Example 292]		≥ 200%	0.65 nM	93%		
CO[C@H](CF)CN1CCOc2cc3c(c(C4CC4)c21)CCNCC3 [Example 287]		≥ 200%	1 nM	97%		
COCCN1CCOc2cc3c(c(Br)c21)CCNCC3 [Example 135]		≥ 200%	2.9 nM	112%		
FCCCN1CCOc2cc3c(c(C4CC4)c21)CCNCC3.O=C(O)/C=C/C(=O)O [Example 141]	144 to 147 °C			100%	≥ 200%	0.36 nM
Cc1ccccc1CN1CCOc2cc3c(c(C4CC4)c21)CCNCC3.O=C(O)/C=C/C(=O)O [Example 276]	163 to 166 °C	≥ 200%	6.4 nM	104%		
CCOCCN1CCOc2cc3c(c(C4CC4)c21)CCNCC3.O=C(O)/C=C/C(=O)O [Example 104]	140 to 145 °C	≥ 200%	1.1 nM	107%		
c1c2c(c(C3CC3)c3c1OCCN3C[C@@H]1CCCO1)CCNCC2 [Example 215]	154 to 156 °C		1 nM	96%	≥ 200%	
Fc1ccccc1CN1CCOc2cc3c(c(C4CC4)c21)CCNCC3.O=C(O)/C=C/C(=O)O [Example 265]	133 to 136 °C	≥ 200%	1.3 nM	97%		
COCCCN1CCOc2cc3c(c(C4CC4)c21)CCNCC3.O=C(O)/C=C/C(=O)O [Example 106]	169 to 171 °C	≥ 200%	1.1 nM	112%		
N#Cc1cc(F)c(OCCN2CCOc3cc4c(c(C5CC5)c32)CCNCC4)c(F)c1 [Example 297]		≥ 200%	0.71 nM	96%		
O=C(O)/C=C/C(=O)O.c1ccc2c(c1)OCC(CN1CCOc3cc4c(c(C5CC5)c31)CCNCC4)O2 (stereo not shown) [Example 267]	179 to 182 °C	≥ 200%	0.51 nM	99%		
COCCCN1CCOc2cc3c(cc21)CCNCC3.O=C(O)/C=C/C(=O)O [Example 59]	141 to 145 °C	≥ 200%	7.1 nM	108%		
COCCN1CCCc2cc3c(c(C4CC4)c21)CCNCC3 [Example 81]		≥ 200%	0.84 nM	114%		
c1ccc(OCCN2CCOc3cc4c(c(C5CC5)c32)CCNCC4)cc1 [Example 268]		≥ 200%	0.92 nM	99%		
COc1cccc(CN2CCOc3cc4c(c(C5CC5)c32)CCNCC4)c1 [Example 299]		≥ 200%	1 nM	98%		
Fc1ccc(F)c(CN2CCOc3cc4c(c(C5CC5)c32)CCNCC4)c1 [Example 283]		≥ 200%	1.7 nM	90%		
